Assay results: patent publication US20180333461A1, “METHODS AND COMPOSITIONS FOR TREATING OR PREVENTING FLAVIVIRUS INFECTIONS” (THE UNIVERSITY OF QUEENSLAND, priority 2014, published 2018)
Entries after “also recorded” stand apart in the source; their conditions may differ.

Experiments:
[1] = tested on: bone marrow-derived macrophages (BMM); assay: CSF-1R down-modulation assay on BMMs (flow cytometry); type: cell-based, mouse; conditions: 1 hour treatment
Description: NS1 and LPS were pre-incubated for 30 minutes with or without polymyxin B, then added to PBMC and incubated for 24 hours. The final concentration of polymyxin B was 25 μg/mL, with varying concentrations of LPS (0.1, 1, 10 ng/mL) and NS1 (5, 10, 20 and 40 μg/mL). Released IL-6 was measured by ELISA. […] NS1 and LPS were pre-incubated for 30 minutes with or without polymyxin B then added to BMMs that had been starved of CSF1 overnight. The final concentration of polymyxin B was 25 μg/mL, with LPS (10-fold dilutions from 100 ng/mL) and NS1 (2′-fold dilutions from 10 μg/mL). After 1 hour of treatment, CSF1R levels were determined by flow cytometry, and the % of cells with high levels of receptor are shown. Data are the mean±SD from three (A) or five (B) independent experiments.
FIG. 3 is a graphical representation showing that NS1 from several sources has immunostimulatory activity. (A) NS1 immuno-depletion prevents the down-modulation of surface CSF1R by S2 cell-expressed NS1. […] The final concentration of 5 μg/mL NS1 (as quantified by capture-ELISA) represents approximately 4-fold higher levels than produced in the CHO cell medium. […]
FIG. 5 is a graphical representation showing that NS1 activates cells via TLR4. […] CSF1R on wild-type C57BL/6 BMM (WT), tlr4^−/− and MyD88^−/−/trif^−/− BMMs was measured after 1 hour treatment with CSF1 (10^4 U/mL), LPS (100 ng/mL) and NS1 (10 μg/mL). […]

human PBMC = assay: IL-6 secretion by human PBMC (ELISA), with or without polymyxin B pre-incubation; type: cell-based; conditions: 24 hours
Description: FIG. 1 is a graphical representation showing that Dengue NS1 activates human and mouse innate immune responses. (A) NS1 induces IL-6 secretion by human PBMC. Cells were treated for 24 hrs. with LPS (100 ng/mL), NS1 (40 μg/mL), or an analogous NS1 sample immune-depleted with anti-NS1 or anti-E antibody. IL-6 was measured by ELISA. Data shown is mean±SD of three donors. The inset immunoblot is of the supernatant fraction following immuno-depletion using anti-NS1 antibody or isotype-matched control antibody. […] ELAM promoter activity was monitored as in B, in response to LPS (100 ng/mL), NS1 (40 μg/mL), NS1 immuno-depleted using anti-NS1 antibody or isotype-matched control antibody (confirmed in western blot inset).
NS1 and LPS were pre-incubated for 30 minutes with or without polymyxin B, then added to PBMC and incubated for 24 hours. […] Released IL-6 was measured by ELISA. […] After 1 hour of treatment, CSF1R levels were determined by flow cytometry, and the % of cells with high levels of receptor are shown. […]
Human PBMCs from healthy donors were seeded at 1×10^6 cells per well in 12 well plates prior to incubation with NS1 or LPS. […] The level of IL-6 production was quantitated ELISA (R & D Systems) according to the protocol recommended by the manufacturer.

polymyxin B
Effect on LPS-induced loss of surface CSF1R on BMMs ([1]; polymyxin B 25 μg/mL pre-incubated with LPS 30 min): sensitive | Effect on NS1-induced loss of surface CSF1R on BMMs ([1]; polymyxin B 25 μg/mL pre-incubated with NS1 30 min): does not block | Effect on LPS-induced IL-6 in PBMC (human PBMC; polymyxin B 25 μg/mL pre-incubated with LPS 30 min, LPS ≤10 ng/mL): inhibited | Effect on NS1-induced IL-6 in PBMC (human PBMC; polymyxin B 25 μg/mL pre-incubated with NS1 (5-40 μg/mL) 30 min): does not block; also recorded: unaffected
